Assay results reported in ChEMBL document CHEMBL1201862, “PubChem BioAssay data set” (2004).
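In this assay, cells in 96-well plates receive the compound at five concentrations for 48 hours. Endpoints are linearly interpolated between the surrounding concentrations. Abbreviation: GI50, concentration required for 50% inhibition of growth.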 Calls of active or inactive are those of the source. Rule as the data show it: active = GI50 up to about 1.1 µM and inactive = higher.

Columns and labels:
Assay in all cases: growth of human tumour cells (NCI), 48 h
SNB-75 = tested on: SNB-75
M14 = tested on: M14
786-0 = tested on: 786-0
UO-31 = tested on: UO-31
NCI-H23 = tested on: NCI-H23
T47D = tested on: T47D
MDA-MB-435 = tested on: MDA-MB-435
OVCAR-4 = tested on: OVCAR-4
HT-29 = tested on: HT-29
SK-OV-3 = tested on: SK-OV-3
CAKI-1 = tested on: CAKI-1
K562 = tested on: K562
A498 = tested on: A498
SK-MEL-2 = tested on: SK-MEL-2
TK-10 = tested on: TK-10
SK-MEL-28 = tested on: SK-MEL-28
HOP-92 = tested on: HOP-92
PC-3 = tested on: PC-3
UACC-62 = tested on: UACC-62
COLO 205 = tested on: COLO 205
MOLT-4 = tested on: MOLT-4
NCI-H226 = tested on: NCI-H226
RXF 393 = tested on: RXF 393
SNB-19 = tested on: SNB-19
NCI-H522 = tested on: NCI-H522
HCT-15 = tested on: HCT-15
HCT-116 = tested on: HCT-116
U-251 = tested on: U-251
MCF7 = tested on: MCF7
SN12C = tested on: SN12C
NCI-H460 = tested on: NCI-H460
CCRF-CEM = tested on: CCRF-CEM
SW-620 = tested on: SW-620
SF-539 = tested on: SF-539
OVCAR-3 = tested on: OVCAR-3
KM12 = tested on: KM12
EKVX = tested on: EKVX
HOP-62 = tested on: HOP-62
BT-549 = tested on: BT-549
SK-MEL-5 = tested on: SK-MEL-5
NCI/ADR-RES = tested on: NCI/ADR-RES
UACC-257 = tested on: UACC-257
MDA-N = tested on: MDA-N
OVCAR-5 = tested on: OVCAR-5
LOX IMVI = tested on: LOX IMVI
HL-60 = tested on: HL-60
A549 = tested on: A549
RPMI-8226 = tested on: RPMI-8226
IGROV-1 = tested on: IGROV-1
MDA-MB-231 = tested on: MDA-MB-231
OVCAR-8 = tested on: OVCAR-8
SF-268 = tested on: SF-268
SR = tested on: SR
HCC 2998 = tested on: HCC 2998
SF-295 = tested on: SF-295
Hs-578T = tested on: Hs-578T
Malme-3M = tested on: Malme-3M
ACHN = tested on: ACHN
DU-145 = tested on: DU-145

CN1CCN([C@H]2C[C@H]3[C@@H]4CC=C5C[C@@H](O)CC[C@]5(C)[C@H]4CC[C@]3(C)C2=O)CC1
GI50 (SNB-75): > 100 µM (inactive)
GI50 (M14): > 100 µM (inactive)
GI50 (786-0): > 100 µM (inactive)
GI50 (UO-31): > 100 µM (inactive)
GI50 (NCI-H23): > 100 µM (inactive)
GI50 (T47D): > 100 µM (inactive)
GI50 (MDA-MB-435): > 100 µM (inactive)
GI50 (OVCAR-4): > 100 µM (inactive)
GI50 (HT-29): 42.2 µM (inactive)
GI50 (SK-OV-3): > 100 µM (inactive)
GI50 (CAKI-1): > 100 µM (inactive)
GI50 (K562): 34.3 µM (inactive)
GI50 (A498): > 100 µM (inactive)
GI50 (SK-MEL-2): > 100 µM (inactive)
GI50 (TK-10): > 100 µM (inactive)
GI50 (SK-MEL-28): > 100 µM (inactive)
GI50 (HOP-92): > 100 µM (inactive)
GI50 (PC-3): > 100 µM (inactive)
GI50 (UACC-62): > 100 µM (inactive)
GI50 (COLO 205): > 100 µM (inactive)
GI50 (MOLT-4): > 100 µM (inactive)
GI50 (NCI-H226): > 100 µM (inactive)
GI50 (RXF 393): > 100 µM (inactive)
GI50 (SNB-19): > 100 µM (inactive)
GI50 (NCI-H522): > 100 µM (inactive)
GI50 (HCT-15): > 100 µM
GI50 (HCT-116): > 100 µM (inactive)
GI50 (U-251): > 100 µM (inactive)
GI50 (MCF7): > 100 µM (inactive)
GI50 (SN12C): > 100 µM (inactive)
GI50 (NCI-H460): > 100 µM (inactive)
GI50 (CCRF-CEM): > 100 µM (inactive)
GI50 (SW-620): > 100 µM (inactive)
GI50 (SF-539): 62.5 µM (inactive)
GI50 (OVCAR-3): > 100 µM (inactive)
GI50 (KM12): > 100 µM (inactive)
GI50 (EKVX): > 100 µM (inactive)
GI50 (HOP-62): > 100 µM (inactive)
GI50 (BT-549): > 100 µM (inactive)
GI50 (SK-MEL-5): > 100 µM (inactive)
GI50 (NCI/ADR-RES): > 100 µM (inactive)
GI50 (UACC-257): > 100 µM (inactive)
GI50 (MDA-N): > 100 µM (inactive)
GI50 (OVCAR-5): > 100 µM (inactive)
GI50 (LOX IMVI): > 100 µM (inactive)
GI50 (HL-60): 31.8 µM (inactive)
GI50 (A549): > 100 µM (inactive)
GI50 (RPMI-8226): 91 µM (inactive)
GI50 (IGROV-1): > 100 µM (inactive)
GI50 (MDA-MB-231): > 100 µM (inactive)
GI50 (OVCAR-8): > 100 µM (inactive)
GI50 (SF-268): > 100 µM (inactive)
GI50 (SR): 29.4 µM (inactive)
GI50 (HCC 2998): > 100 µM (inactive)
GI50 (SF-295): > 100 µM (inactive)
GI50 (Hs-578T): > 100 µM (inactive)
GI50 (Malme-3M): > 100 µM (inactive)
GI50 (ACHN): > 100 µM (inactive)

C=CCOC(=O)CC[C@H](NC(=O)[C@@H](CCC(F)(F)F)Cc1ccc(O)cc1)C(=O)OCC=C
GI50 (SNB-75): 28.8 µM (inactive)
GI50 (M14): 21.3 µM (inactive)
GI50 (786-0): 86.9 µM (inactive)
GI50 (UO-31): > 100 µM (inactive)
GI50 (NCI-H23): 38.5 µM (inactive)
GI50 (T47D): 20.6 µM (inactive)
GI50 (MDA-MB-435): 25.4 µM (inactive)
GI50 (OVCAR-4): 65.2 µM (inactive)
GI50 (HT-29): > 100 µM (inactive)
GI50 (SK-OV-3): > 100 µM (inactive)
GI50 (CAKI-1): > 100 µM (inactive)
GI50 (K562): 41.5 µM (inactive)
GI50 (SK-MEL-28): 23.7 µM (inactive)
GI50 (HOP-92): 67.1 µM (inactive)
GI50 (UACC-62): 34 µM (inactive)
GI50 (COLO 205): 21.3 µM (inactive)
GI50 (MOLT-4): 27.7 µM (inactive)
GI50 (NCI-H226): > 100 µM (inactive)
GI50 (RXF 393): > 100 µM (inactive)
GI50 (SNB-19): > 100 µM (inactive)
GI50 (NCI-H522): 24.3 µM (inactive)
GI50 (HCT-15): > 100 µM
GI50 (HCT-116): > 100 µM (inactive)
GI50 (MCF7): 20.7 µM (inactive)
GI50 (SN12C): 45.4 µM (inactive)
GI50 (SW-620): > 100 µM (inactive)
GI50 (SF-539): 90.2 µM (inactive)
GI50 (KM12): > 100 µM (inactive)
GI50 (EKVX): 27.3 µM (inactive)
GI50 (HOP-62): > 100 µM (inactive)
GI50 (BT-549): > 100 µM (inactive)
GI50 (SK-MEL-5): 18.5 µM (inactive)
GI50 (NCI/ADR-RES): > 100 µM (inactive)
GI50 (MDA-N): 32.7 µM (inactive)
GI50 (OVCAR-5): > 100 µM (inactive)
GI50 (LOX IMVI): 55.2 µM (inactive)
GI50 (HL-60): 85.9 µM (inactive)
GI50 (A549): > 100 µM (inactive)
GI50 (RPMI-8226): 30.4 µM (inactive)
GI50 (IGROV-1): > 100 µM (inactive)
GI50 (OVCAR-8): > 100 µM (inactive)
GI50 (SF-268): 41 µM (inactive)
GI50 (SR): 32.5 µM (inactive)
GI50 (SF-295): > 100 µM (inactive)
GI50 (Hs-578T): 36.7 µM (inactive)
GI50 (Malme-3M): 20.2 µM (inactive)
GI50 (ACHN): 47.9 µM (inactive)

C=C1CC2(CCCC3(CC(=C)C(=O)O3)C2(C)C)OC1=O (stereo unspecified)
GI50 (SNB-75): 16.7 µM (inactive)
GI50 (M14): 2.56 µM (inactive)
GI50 (786-0): 1.81 µM (inactive)
GI50 (UO-31): 3.06 µM (inactive)
GI50 (NCI-H23): 2.89 µM (inactive)
GI50 (T47D): 3.33 µM (inactive)
GI50 (MDA-MB-435): 2.75 µM (inactive)
GI50 (OVCAR-4): 4.85 µM (inactive)
GI50 (HT-29): 3.82 µM (inactive)
GI50 (SK-OV-3): 20.5 µM (inactive)
GI50 (CAKI-1): 2.7 µM (inactive)
GI50 (K562): 3.38 µM (inactive)
GI50 (A498): 21.4 µM (inactive)
GI50 (SK-MEL-2): 7.24 µM (inactive)
GI50 (TK-10): 1.18 µM (inactive)
GI50 (SK-MEL-28): 2.05 µM (inactive)
GI50 (HOP-92): 5.85 µM (inactive)
GI50 (PC-3): 8.09 µM (inactive)
GI50 (UACC-62): 2 µM (inactive)
GI50 (COLO 205): 2.21 µM (inactive)
GI50 (MOLT-4): 0.302 µM (active)
GI50 (NCI-H226): 2.22 µM (inactive)
GI50 (RXF 393): 3.86 µM (inactive)
GI50 (SNB-19): 17.3 µM (inactive)
GI50 (NCI-H522): 1.46 µM (inactive)
GI50 (HCT-15): 0.491 µM
GI50 (HCT-116): 1.44 µM (inactive)
GI50 (U-251): 1.42 µM (inactive)
GI50 (MCF7): 3.4 µM (inactive)
GI50 (SN12C): 3.03 µM (inactive)
GI50 (NCI-H460): 18.7 µM (inactive)
GI50 (CCRF-CEM): 0.437 µM (active)
GI50 (SW-620): 1.39 µM (inactive)
GI50 (SF-539): 3.26 µM (inactive)
GI50 (OVCAR-3): 1.96 µM (inactive)
GI50 (KM12): 8.11 µM (inactive)
GI50 (EKVX): 4.02 µM (inactive)
GI50 (HOP-62): 13.9 µM (inactive)
GI50 (BT-549): 3.75 µM (inactive)
GI50 (SK-MEL-5): 14.8 µM (inactive)
GI50 (NCI/ADR-RES): 13.2 µM (inactive)
GI50 (UACC-257): 1.85 µM (inactive)
GI50 (OVCAR-5): 1.58 µM (inactive)
GI50 (DU-145): 3.73 µM (inactive)
GI50 (LOX IMVI): 1.69 µM (inactive)
GI50 (HL-60): 2.4 µM (inactive)
GI50 (A549): 13.8 µM (inactive)
GI50 (RPMI-8226): 0.47 µM (active)
GI50 (IGROV-1): 8.83 µM (inactive)
GI50 (MDA-MB-231): 4.95 µM (inactive)
GI50 (OVCAR-8): 1.38 µM (inactive)
GI50 (SF-268): 19.2 µM (inactive)
GI50 (SF-295): 16.5 µM (inactive)
GI50 (Hs-578T): 20.8 µM (inactive)
GI50 (Malme-3M): 1.64 µM (inactive)
GI50 (ACHN): 1.07 µM (active)
